Assay results: ChEMBL document CHEMBL3525973, “Quantitative prediction of human intestinal glucuronidation effects on intestinal availability of UDP-glucuronosyltransferase substrates using in vitro data” (Drug Metab Dispos, 2012)

Legend:
[1] = Bioavailability in human; type: ADME, organism-based; conditions: in vivo
[2] = Unbound intrinsic clearance in human intestinal microsomes assessed CYP450-mediated glucuronidation clearance
[3] = Unbound fraction during UGT-mediated glucuronidation in human intestinal microsomes
[4] = Unbound intrinsic clearance in human intestinal microsomes assessed UGT-mediated glucuronidation clearance
[5] = Intrinsic clearance in human intestinal microsomes assessed UGT-mediated glucuronidation clearance
[6] = target: T1, UDP-glucuronosyltransferase 2B7 (Homo sapiens, UniProt P16662); experiment: Activity of human UGT2B7 expressed in insect cells assessed as reduction in compound level after 30 mins; type: ADME; conditions: 0.5 h
T1 sequence (P16662 whole entry): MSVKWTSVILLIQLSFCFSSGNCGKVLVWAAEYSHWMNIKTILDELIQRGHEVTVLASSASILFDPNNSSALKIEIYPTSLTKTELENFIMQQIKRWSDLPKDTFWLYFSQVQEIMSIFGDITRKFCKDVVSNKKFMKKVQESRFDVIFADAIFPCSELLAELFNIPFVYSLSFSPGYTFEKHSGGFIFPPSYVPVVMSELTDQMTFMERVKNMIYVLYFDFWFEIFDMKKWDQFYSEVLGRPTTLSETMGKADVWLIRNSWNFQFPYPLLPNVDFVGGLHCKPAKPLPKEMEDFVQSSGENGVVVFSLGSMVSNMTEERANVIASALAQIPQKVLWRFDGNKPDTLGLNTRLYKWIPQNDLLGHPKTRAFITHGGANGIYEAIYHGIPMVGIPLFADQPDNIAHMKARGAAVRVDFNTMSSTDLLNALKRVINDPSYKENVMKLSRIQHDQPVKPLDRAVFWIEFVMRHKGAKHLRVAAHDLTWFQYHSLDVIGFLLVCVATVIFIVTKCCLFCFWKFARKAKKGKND

[7] = Intrinsic clearance in human intestinal microsomes assessed CYP450-mediated glucuronidation clearance; conditions: microsomes
[8] = Apparent permeability by PAMPA method
[9] = in vitro; conditions: human, blood and plasma
Description: Ratio of drug level in blood to plasma in human

[10] = target: T2, UDP-glucuronosyltransferase 1A9 (Homo sapiens, UniProt O60656); experiment: Activity of human UGT1A9 expressed in insect cells assessed as reduction in compound level after 30 mins; type: ADME; conditions: 0.5 h
T2 sequence (O60656 whole entry): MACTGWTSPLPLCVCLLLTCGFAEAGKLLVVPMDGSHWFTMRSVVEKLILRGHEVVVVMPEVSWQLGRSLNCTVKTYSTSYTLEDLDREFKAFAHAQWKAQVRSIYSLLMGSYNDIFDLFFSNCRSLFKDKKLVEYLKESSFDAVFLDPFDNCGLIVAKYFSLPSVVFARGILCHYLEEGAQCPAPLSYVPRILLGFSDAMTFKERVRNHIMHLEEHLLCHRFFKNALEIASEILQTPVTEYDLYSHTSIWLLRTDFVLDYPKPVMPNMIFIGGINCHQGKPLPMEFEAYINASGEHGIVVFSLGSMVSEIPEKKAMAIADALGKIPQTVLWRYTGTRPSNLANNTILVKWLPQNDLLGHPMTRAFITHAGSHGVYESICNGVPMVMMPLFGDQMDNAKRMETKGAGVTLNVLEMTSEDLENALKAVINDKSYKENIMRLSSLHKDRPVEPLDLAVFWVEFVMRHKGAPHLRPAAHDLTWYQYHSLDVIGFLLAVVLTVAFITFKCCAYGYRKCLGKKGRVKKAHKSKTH

[11] = target: T3, UDP-glucuronosyltransferase 2B15 (Homo sapiens, UniProt P54855); experiment: Activity of human UGT2B15 expressed in insect cells assessed as reduction in compound level after 30 mins; type: ADME; conditions: 0.5 h
T3 sequence (P54855 whole entry): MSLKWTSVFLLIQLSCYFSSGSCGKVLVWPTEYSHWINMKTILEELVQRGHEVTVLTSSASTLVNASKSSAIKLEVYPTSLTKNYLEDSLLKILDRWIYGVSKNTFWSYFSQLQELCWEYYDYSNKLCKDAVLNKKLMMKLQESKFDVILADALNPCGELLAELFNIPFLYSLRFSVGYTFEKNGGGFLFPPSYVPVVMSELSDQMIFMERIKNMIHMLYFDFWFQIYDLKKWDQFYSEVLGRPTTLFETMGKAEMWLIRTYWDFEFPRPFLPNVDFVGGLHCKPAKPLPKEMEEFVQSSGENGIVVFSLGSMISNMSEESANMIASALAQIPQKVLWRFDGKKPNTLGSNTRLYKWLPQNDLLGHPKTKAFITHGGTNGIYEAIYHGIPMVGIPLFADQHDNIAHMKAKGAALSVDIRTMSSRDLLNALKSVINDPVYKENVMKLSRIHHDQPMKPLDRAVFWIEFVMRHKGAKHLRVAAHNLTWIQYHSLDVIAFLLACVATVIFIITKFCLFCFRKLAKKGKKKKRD

[12] = clinical; conditions: human, in vivo
[13] = target: T4, UDP-glucuronosyltransferase 1A7 (Homo sapiens, UniProt Q9HAW7); experiment: Activity of human UGT1A7 expressed in insect cells assessed as reduction in compound level after 30 mins; type: ADME; conditions: 0.5 h
T4 sequence (Q9HAW7 whole entry): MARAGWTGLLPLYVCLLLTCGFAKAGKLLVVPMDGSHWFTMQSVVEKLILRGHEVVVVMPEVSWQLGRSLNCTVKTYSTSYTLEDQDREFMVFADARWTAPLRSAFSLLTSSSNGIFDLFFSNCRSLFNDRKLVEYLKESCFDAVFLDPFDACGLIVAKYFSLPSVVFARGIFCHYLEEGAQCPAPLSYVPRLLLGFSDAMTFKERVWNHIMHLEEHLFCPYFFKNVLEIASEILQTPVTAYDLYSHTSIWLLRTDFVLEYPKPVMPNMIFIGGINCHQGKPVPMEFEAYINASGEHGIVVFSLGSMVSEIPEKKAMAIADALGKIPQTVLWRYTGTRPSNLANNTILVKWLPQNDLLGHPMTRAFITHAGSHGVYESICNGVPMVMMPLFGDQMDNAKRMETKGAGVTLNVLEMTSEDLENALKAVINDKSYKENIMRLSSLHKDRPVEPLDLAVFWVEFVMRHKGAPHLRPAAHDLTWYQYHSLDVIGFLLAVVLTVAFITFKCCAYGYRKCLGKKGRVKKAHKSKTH

[14] = target: T5, UDP-glucuronosyltransferase 1A1 (Homo sapiens, UniProt P22309); experiment: Activity of human UGT1A1 expressed in insect cells assessed as reduction in compound level after 30 mins; type: ADME; conditions: 0.5 h
T5 sequence (P22309 whole entry): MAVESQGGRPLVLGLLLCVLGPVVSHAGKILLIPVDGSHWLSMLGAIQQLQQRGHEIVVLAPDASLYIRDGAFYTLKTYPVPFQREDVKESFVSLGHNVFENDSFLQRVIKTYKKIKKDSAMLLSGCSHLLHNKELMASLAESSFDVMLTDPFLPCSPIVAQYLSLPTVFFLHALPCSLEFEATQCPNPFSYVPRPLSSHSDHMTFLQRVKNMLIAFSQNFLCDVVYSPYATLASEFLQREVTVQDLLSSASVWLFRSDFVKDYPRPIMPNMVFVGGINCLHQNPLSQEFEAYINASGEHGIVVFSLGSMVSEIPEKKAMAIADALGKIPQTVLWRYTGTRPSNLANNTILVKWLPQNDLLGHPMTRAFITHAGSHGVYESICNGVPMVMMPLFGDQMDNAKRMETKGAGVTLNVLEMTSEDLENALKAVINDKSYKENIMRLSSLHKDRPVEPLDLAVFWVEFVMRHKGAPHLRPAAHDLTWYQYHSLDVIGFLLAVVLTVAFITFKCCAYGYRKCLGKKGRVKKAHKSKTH

Row | bioavailability [1] [%] | CL free [2] | fraction unbound ([3]; microsomes) | CL free [4] [µL/min/mg] | microsomal CLint ([5]; microsomes) [µL/min/mg] | Drug metabolism [6] | CL [7] | Papp [8] [×10⁻⁶ cm/s] | blood plasma ratio [9] | Drug metabolism [10] | Drug metabolism [11] | fraction unbound ([3]; intestinal microsomes) | microsomal CLint ([5]; intestinal microsomes) [µL/min/mg] | clearance [12] [mL/min/kg] | Drug metabolism [13] | Drug metabolism [14] | Compound
1 | 100 | metabolite_not_detected | 0.97 | 17.5 | 17 | metabolite_detected | metabolite_not_detected | < 0.1 | 0.58 |  |  |  |  |  |  |  | Cc1ccc(C)c(OCCCC(C)(C)C(=O)O)c1 [GEMFIBROZIL]
2 |  |  |  | 176 |  | metabolite_detected |  | 14 | 0.66 | metabolite_detected | metabolite_detected | 0.88 | 155 | 2.2 | metabolite_detected | metabolite_detected | Cc1c(Cl)cccc1Nc1ccccc1C(=O)O [TOLFENAMIC ACID]
